Here are results for 85 molecules from a melting point compilation (Tetko et al.; mined from patent text by program, amines drawn as free bases though some values may be those of a salt).

As for `COCCNC(=O)c1cccc(-c2cccc3cc(Cc4ccc(F)c(OC)c4)sc23)c1`, the melting point (as a rule, the temperature of the solid-liquid transition) was in the range of 70 to 71 °C.

On to `CCOC(=O)c1ccc(-c2cnc3c(c2)N(Cc2c(F)ccc(F)c2Cl)C(=O)CN3)cc1`, for which the melting point was in the range of 180 to 182 °C.

With `CCc1c(CNS(=O)(=O)Cc2cccc(C(F)(F)F)c2)nn(-c2ccc(Cl)cc2Cl)c1-c1ccc(Br)cc1`, the melting point was determined as 108 °C.

`COc1nc(Nc2ccc(F)cc2F)c(C(=O)Cl)cc1F` had a melting point of 153 to 154 °C.

`O=Cc1c(N2CCCC2)n(C2OC(CO)C(O)C2O)c2cc(Cl)c(Cl)cc12` (stereo not given) came in with a melting point of 131 to 134 °C.

Molecule `CCc1nc2c(c(=O)n(C)c(=O)n2-c2ccc(Cl)cc2Cl)n1Cc1ccc(OC)cc1` yielded a melting point of 209 to 210 °C.

`Cc1ccc(-c2c(C#N)c(CC(C)C)nc3ccc(OCc4ccccc4)cc23)cc1` registered a melting point of 137 to 138 °C.

In turn, `CC(CC(C(=O)N(C)C)(c1ccccc1)c1ccccc1)N1CCC(NC(=O)c2cnc[nH]2)C(O)C1` (stereo not given) returned a melting point of 155 °C.

Molecule `CNC(=O)NC(=O)/C(=C/C(C)C)c1ccc(Cl)c(Cl)c1` had a melting point of 177 to 178 °C.

Molecule `COc1ccc(C(=O)N[C@@H](Cc2ccc(OC(=O)c3ccc(OC)cc3)cc2)C(=O)O)cc1` came in with a melting point of 171 to 174 °C.

Turning to `CCOC(=O)c1ccc(NCc2ccccc2)nc1C(=O)OCC`, the melting point is 110 to 114 °C.

Take `COC(=O)C1CCC2C3CCC4CC(OC(C)=O)CCC4(C)C3C(NC3CCCCC3)CC12C` (stereo not given): the melting point is 126 to 128 °C.

`CCCCCCCOc1ccc(C(=O)O)c(Cl)c1` displayed a melting point of 76 to 78 °C.

Consider `Cc1nc(Br)cnc1NS(=O)(=O)c1cccc2c(N(C)C)cccc12`, for which the melting point is 171 to 172 °C.

Take `COc1cc2c(cc1-c1cnccn1)-c1c(-c3cccs3)c3c(n1CC2)C(=O)N(C(C)(C)C)CCCOC3`: the melting point fell in the range of 267 to 268 °C.

Consider `O=C(c1ccc(OCCCCl)cc1)c1cccc2[nH]ccc12`, for which the melting point came out at 86 °C.

As for `CC(C)(C)CCN1C(=O)C(NC(=O)Nc2ccccc2)C(=O)N(c2ccccc2F)c2ccccc21` (stereo not given), the melting point lay within 271 to 272 °C.

Regarding `O=Cc1ccc(-n2ncc3sc4ccccc4c32)cc1`, the melting point is 261 to 263 °C.

Consider `COCCOCCN1C(=O)C2(COc3cc4c(cc32)OCCO4)c2cc3c(cc21)OCCO3` (stereo not given), for which the melting point lay in the range of 146 to 148 °C.

`C=CCn1ncc2cc3ncc(-c4ccc(OC)c(F)c4)nc3cc21` came in with a melting point of 121 to 124 °C.

Take `CC(NC1CCC(=O)NC1c1ccc(F)cc1)c1cc(C(F)(F)F)cc(C(F)(F)F)c1` (stereo not given): the melting point came to 120 °C.

As for `CNC(=O)C(Cc1ccc([N+](=O)[O-])cc1)NC(=O)Nc1n[nH]c(=S)s1` (stereo not given), the melting point lay in the range of 228 to 230 °C.

The molecule `CC1(c2ccc(Oc3nc4ccc(Cl)cc4s3)cc2)OC(=O)N(Nc2ccccc2)C1=O` (stereo not given) showed a melting point of 207 to 209 °C.

With `CCCCCCCCCCCCCCCCCCNC(=O)O[C@@H]1CCCO[C@H]1COCc1ccccc1` (relative stereo), the melting point lay in the range of 84 to 86 °C.

With `C[N+]1([O-])CCC(=C(c2ccsc2)c2ccsc2)CC1` (stereo not given), the melting point lay in the range of 92 to 96 °C.

Turning to `COc1cc(OC)nc(NC(=O)N=NS(=O)(=O)C2SCCCN2C)n1` (stereo not given), the melting point lay within 188 to 190 °C.

Turning to `CC(OC(=O)c1cn(-c2ccc(F)cc2)c(-c2ccc(N(C)C)cc2)cc1=O)OC(=O)C(C)(C)C` (stereo not given), the melting point is 117 to 120 °C.

Molecule `CNC(=O)N1N=C(c2ccc(NC(C)=O)cc2)c2cc3c(cc2CC1C)OCO3` (stereo not given) showed a melting point of 150 to 152 °C.

`Cn1c(C(=O)NN2CCCCC2)cc(-c2ccc(Cl)cc2Cl)c1-c1ccc(Cl)cc1` had a melting point of 218 °C.

The molecule `COc1cccc(-c2nn(C)c3ccsc23)c1` registered a melting point of 99 to 101 °C.

As to `FC(F)(F)c1ccc2c(Nc3ccccc3)ncnc2c1`, the melting point lay in the range of 230 to 232 °C.

For the molecule `CC(=O)Nc1ccc(C(=O)O)cc1OC(C)=O`, the melting point was in the range of 219 to 221 °C.

`O=C(O)CNC(=Nc1ccccc1)NC1CCCCC1`: the melting point fell in the range of 160 to 165 °C.

As to `CCCCCCCCCCCCCCOc1ccc(C(=O)N(Cc2ccccn2)C(C)=O)cc1`, the melting point fell in the range of 68 to 70 °C.

For the molecule `CCn1cc(C(=O)O)c(=O)c2cc(Cl)c(N3CCNCC3)cc21`, the melting point was in the range of 228 to 232 °C.

`CC(C)(C)c1cc(S[C@@H]2CCCC[C@H]2O)cc(C(C)(C)C)c1O` (relative stereo) showed a melting point of 91 °C.

Take `Oc1ccc(N=Nc2cccc(Cl)c2Cl)c(Cl)c1Cl`: the melting point is 197 to 199 °C.

Turning to `O=S(=O)(Nc1ccc(Cl)cc1C(=NOCc1ccc(Cl)c(Cl)c1)c1ccccc1)C(F)(F)F`, the melting point lay within 87 to 88 °C.

For `CCOC(=O)c1cccc2c1Nc1ccc(C(=O)c3ccccc3)cc1N2C(=O)OC`, the melting point is 112 to 115 °C.

As to `CC(C)C1Cc2cc(C=O)sc2C1` (stereo not given), the melting point was < 50 °C.

The molecule `COc1ccc(C2Sc3c(ccc4ccccc34)N(CCCN(C)C)C(=O)C2OC(C)=O)cc1` (stereo not given) yielded a melting point of 98 to 99 °C.

In turn, `Cc1cc(-n2cc(-c3ccc(F)cc3)nc2C)cc2ccc(=O)[nH]c12` gave a melting point of 289 to 291 °C.

With `Nc1cc(-c2c[nH]cn2)ccn1`, the melting point lay in the range of 193 to 196 °C.

The molecule `CCOC(=O)C(=CNc1scc(C)c1C(=O)OC)C(=O)OCC` yielded a melting point of 106 °C.

The molecule `CCCCCCC(C(=O)OCC)n1c(C(F)(F)C(F)(F)F)nc2cc(-c3ccccc3-c3nn[nH]n3)ccc21` (stereo not given) had a melting point of 70 to 72 °C.

Molecule `CC1(C)CC(Cc2ccc(CC3CC(C)(C)N(Cc4ccccc4)C(C)(C)C3)cc2)CC(C)(C)N1Cc1ccccc1` showed a melting point of 207 to 208 °C.

The molecule `O=C1c2ccccc2C(=O)N1CCCCOc1ccncc1` came in with a melting point of 126 to 127 °C.

For `Cc1ccc(Nc2nc(-c3ccccc3)c(C(=O)c3sc(Nc4ccc(C)cc4)nc3-c3ccccc3)s2)cc1`, the melting point is > 285 °C.

`COc1cccc(CN2CCC3(CCc4c3n(C)c3ccccc43)CC2)c1` had a melting point of 100 to 101 °C.

Consider `CCCCCCCCCCCC(=O)c1c(-c2ccccc2)[nH]n(-c2ccccc2)c1=O`, for which the melting point is 69 °C.

`CCNC1=NN(c2ccc(Cl)cc2)CC1C` (stereo not given): the melting point is 63 to 64 °C.

Molecule `COc1ccc(Cl)cc1C(=O)NCCc1ccc(-c2ccc(Cl)cc2)c(S(N)(=O)=O)c1` displayed a melting point of 185 °C.

The molecule `O=C(OCC1c2ccccc2-c2ccccc21)N1CCC(n2nc(-c3ccccc3)[nH]c2=O)CC1` came in with a melting point of 142 °C.

Turning to `O=C(NC1CCCCNC1=O)c1cccnc1` (stereo not given), the melting point is 177 to 178 °C.

As for `O=C1CCC2=C(CCCC2)N1`, the melting point lay within 143 to 144 °C.

Molecule `CC=CC(=O)Nc1n[nH]c2cc(Cl)ccc12` had a melting point of 226 °C.

`C=C(c1cc(C(C)(C)C)cc2c1CCC2(C)C)c1sccc1C=O` showed a melting point of 148 to 150 °C.

The molecule `CNC(=S)N1CCSC1c1ccccc1OCCN1CCN(c2ccccc2)CC1` (single isomer, unassigned; (-)) came in with a melting point of 144 to 146 °C.

Molecule `CC(=O)N[C@@H](Cc1c[nH]c2ccc(O)cc12)C(=O)O` had a melting point of 209 °C.

`O=C(O)c1cn(CCO)c2c(F)c(N3CCn4ccnc4C3)c(F)cc2c1=O`: the melting point is 253 to 255 °C.

For the molecule `Cc1c(C(=O)c2ccc(F)cc2)n(N2C(=O)c3ccccc3C2=O)c2ccccc12`, the melting point lay in the range of 227 to 228 °C.

`Cn1cccc1-c1cc(O)c2ncccc2c1O` displayed a melting point of 142 to 143 °C.

For `COC(=O)c1ccc(OC)cc1S`, the melting point fell in the range of 35 to 37 °C.

Molecule `CC(C)(C)c1ccc(-c2nc(COCCc3cccc(NS(=O)(=O)C(F)(F)F)c3)cs2)cc1` displayed a melting point of 110 to 112 °C.

The molecule `O=[N+]([O-])c1cc([N+](=O)[O-])c2[nH]c(C(F)(F)F)nc2c1N1CCCCC1` registered a melting point of 207 to 209 °C.

Take `COc1cccc2c1OC(C(=O)O)CO2` (stereo not given): the melting point was 131 to 132 °C.

`CCOCCOc1ccc(C(C)C)c(NC(=O)CN2CCN(CCCSc3nc4ccccc4o3)CC2)c1C(C)C` showed a melting point of 99 to 100 °C.

The molecule `CC(NC(=O)C=Cc1ccc(Cl)cc1)c1ccc(NS(C)(=O)=O)c(F)c1` (stereo not given) yielded a melting point of 170 to 172 °C.

Molecule `CS(=O)(=O)Nc1ccc([N+](=O)[O-])cc1C(=O)c1ccc(F)cc1F` had a melting point of 172 to 178 °C.

As to `Nc1nc(Cl)nc2c1ncn2C1OC(COC2CC2)C(O)C1O` (stereo not given), the melting point fell in the range of 122 to 124 °C.

Molecule `O=C1c2cccc3cccc(c23)C(O)N1CCN1CCN(c2ccccn2)CC1` (stereo not given) came in with a melting point of 174 to 175 °C.

`O=S(=O)(Nc1nc(O)ncc1F)c1ccccc1` showed a melting point of 221 to 223 °C.

On to `CCOC(=O)c1ccc(OC(=O)CCCCC(=O)Oc2ccc(C(=O)OCC)cc2)cc1`, for which the melting point is 82 to 83 °C.

For `COc1ccc(C(=O)c2c(C)cc(NC(C)(C)C)nc2NC(C)(C)C)cc1`, the melting point lay in the range of 127 to 129 °C.

As to `CCOP(=O)(CC(=O)Nc1cc2c(Nc3ccc(F)c(Cl)c3)ncnc2cc1OCC1CC1)OCC`, the melting point was 185 to 187 °C.

Consider `CN(CCCc1cccc(Oc2ccc(C(F)(F)F)cc2)c1)N=O`, for which the melting point fell in the range of 75 to 76 °C.

In turn, `CCCCCc1ocnc1C(=O)O` yielded a melting point of 84 to 85 °C.

For `COc1ccc(C(=O)CCCN2CCC(OC(=O)c3cc(Cl)c(N)c4c3OCC4)CC2)cc1`, the melting point came to 136 °C.

The molecule `CCOC(=O)N1CCN(c2nc(C)nc3c2OCC(=O)N3CC(O)CO)CC1` (stereo not given) gave a melting point of 146 to 148 °C.

With `O=C(O)CCc1ccc(SCCNS(=O)(=O)c2ccc(Cl)cc2)cc1`, the melting point lay within 117 to 119 °C.

For `COc1cc(OC)c(-c2cccs2)cc1/C=C/C(=O)c1ccc(S(=O)(=O)NCC(F)(F)F)cc1`, the melting point was in the range of 167 to 168 °C.

`O=C(Nc1cccc(Br)c1)Oc1ccccc1`: the melting point lay within 88 to 90 °C.

On to `CN(C)S(=O)(=O)c1ccc(C(=O)O)c(C(F)(F)F)c1`, for which the melting point worked out at 189 °C.

With `c1ccc(CNc2ccnc3ccccc23)cc1`, the melting point was determined as 132 °C.

With `O=c1c(Cl)nc2ccccc2n1-c1ccc(Cl)cc1`, the melting point was > 300 °C.
